# From patent US11427567B2, “Imidazolyl pyrimidinylamine compounds as CDK2 inhibitors” (Incyte Corporation, priority 2019, dated 2022)
# Biological target: CDK2/Cyclin E1 (Homo sapiens (Human), UniProt P24941)
# Experiment: CDK2/Cyclin E1 HTRF enzyme activity assay (Example A)
# Type: biochemical
# Conditions: 1 mM ATP
# Method: Assays were conducted in white 384-well polystyrene plates in a final reaction volume of 8 μL. […] HTRF signals were read after 1 hour at room temperature on a PHERAstar FS plate reader (BMG Labtech). Data was analyzed with IDBS XLFit and GraphPad Prism 5.0 software using a three or four parameter dose response curve to determine IC50 for each compound.
row,SMILES,IC50 [nM]
1,"CS(=O)(=O)N1CCC(Nc2ncc(C(F)(F)F)c(-c3cn(-c4cccnc4C(F)F)cn3)n2)CC1 [Example 37, 4-(1-(2-(Difluoromethyl)pyridin-3-yl)-1H-imidazol-4-yl)-N-(1-(methylsulfonyl)piperidin-4-yl)-5-(trifluoromethyl)pyrimidin-2-amine]",≤ 50
2,"CS(=O)(=O)N1CCC(Nc2ncc(C(F)(F)F)c(-c3cn(-c4ccc(N5CC[C@H](O)C5)cc4Cl)cn3)n2)CC1 [Example 139, (S)-1-(3-Chloro-4-(4-(2-((1-(methyl-sulfonyl)piperidin-4-yl)amino)-5-(trifluoromethyl)-pyrimidin-4-yl)-1H-imidazol-1-yl)-phenyl)pyrrolidin-3-ol]",≤ 50
3,"CS(=O)(=O)N1CCC(Nc2ncc(C(F)(F)F)c(-c3cn(-c4cccc(C#N)c4CO)cn3)n2)CC1 [Example 232, 2-(Hydroxymethyl)-3-(4-(2-((1-(methylsulfonyl)piperidin-4-yl)amino)-5-(trifluoromethyl)pyrimidin-4-yl)-1H-imidazol-1-yl)benzonitrile]",≤ 50
4,"Cc1nc(-c2nc(NC3CCN(S(C)(=O)=O)CC3)ncc2C(F)(F)F)cn1-c1ccc(N(C)CCO)cc1F [Example 113, 2-((3-Fluoro-4-(2-methyl-4-(2-((1-(methyl-sulfonyl)piperidin-4-yl)amino)-5-(trifluoromethyl)-pyrimidin-4-yl)-1H-imidazol-1-yl)phenyl)(methyl)-amino)ethan-1-ol]",≤ 50
5,"CS(=O)(=O)N1CCC(Nc2ncc(C(F)(F)F)c(-c3cn(-c4cccc(C#N)c4Cl)cn3)n2)CC1 [Example 58, 2-Chloro-3-(4-(2-((1-(methylsulfonyl)piperidin-4-yl)amino)-5-(trifluoromethyl)pyrimidin-4-yl)-1H-imidazol-1-yl)benzonitrile]",≤ 50

# The remaining lines, values ahead:
row,IC50 [nM],SMILES
1,≤ 50,"CNCc1cc(F)c(-n2cnc(-c3nc(NC4CCN(S(C)(=O)=O)CC4)ncc3C(F)(F)F)c2)c(F)c1 [Example 350, 4-(1-(2,6-Difluoro-4-((methylamino)methyl)phenyl)-1H-imidazol-4-yl)-N-(1-(methylsulfonyl)piperidin-4-yl)-5-(trifluoromethyl)pyrimidin-2-amine]"
2,≤ 50,"CCN1CCC(c2ccc(-n3cnc(-c4nc(NC5CCN(S(C)(=O)=O)CC5)ncc4C(F)(F)F)c3)c(Cl)c2)CC1 [Example 438, 4-(1-(2-Chloro-4-(1-ethylpiperidin-4-yl)phenyl)-1H-imidazol-4-yl)-N-(1-(methylsulfonyl)piperidin-4-yl)-5-(trifluoromethyl)pyrimidin-2-amine]"
3,≤ 50,"Cc1nc(-c2nc(NC3CCN(S(C)(=O)=O)CC3)ncc2C(F)(F)F)cn1-c1ccc(CCCN2CCC2)cc1F [Example 459, 4-(1-(4-(3-(Azetidin-1-yl)propyl)-2-fluorophenyl)-2-methyl-1H-imidazol-4-yl)-N-(1-(methylsulfonyl)piperidin-4-yl)-5-(trifluoromethyl)pyrimidin-2-amine]"
4,≤ 50,"CS(=O)(=O)N1CCC(Nc2ncc(C(F)(F)F)c(-c3cn(-c4ccc(CN5CC(O)C5)cc4C(F)(F)F)cn3)n2)CC1 [Example 259, 1-(4-(4-(2-((1-(Methylsulfonyl)piperidin-4-yl)amino)-5-(trifluoromethyl)pyrimidin-4-yl)-1H-imidazol-1-yl)-3-(trifluoromethyl)benzyl) azetidin-3-ol]"
5,≤ 50,"CS(=O)(=O)N1CCC(Nc2ncc(C(F)(F)F)c(-c3cn(-c4ccc(Cn5ccnc5)cc4Cl)cn3)n2)CC1 [Example 238, 4-(1-(4-((H-Imidazol-1-yl)methyl)-2-chlorophenyl)-1H-imidazol-4-yl)-N-(1-(methylsulfonyl)piperidin-4-yl)-5-(trifluoromethyl)pyrimidin-2-amine]"
6,≤ 50,"C[C@@]1(O)CCN(Cc2cccc(-n3cnc(-c4nc(NC5CCN(S(C)(=O)=O)CC5)ncc4C(F)(F)F)c3)c2Cl)C1 [Example 363, (R)-1-(2-Chloro-3-(4-(2-((1-(methylsulfonyl)piperidin-4-yl)amino)-5-(trifluoromethyl)pyrimi-din-4-yl)-1H-imidazol-1-yl)benzyl)-3-methylpyrrolidin-3-ol]"
